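Test compounds were applied to cells in 96-well plates for 48 hours at 5 doses. GI50 = concentration required for 50% inhibition of growth.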 Activity calls are given as the source filed them. Rule as the data show it: active = GI50 up to about 1.1 µM and inactive = higher.
What was measured:
Assay in all cases: NCI anticancer screen, dose series, 48 h
[1] = system: 786-0
[2] = system: CAKI-1
[3] = system: DU-145
[4] = system: IGROV-1
[5] = system: K562
[6] = system: KM12
[7] = system: MDA-MB-231
[8] = system: MDA-MB-435
[9] = system: NCI-H226
[10] = system: NCI-H460
[11] = system: NCI-H522
[12] = system: OVCAR-3
[13] = system: OVCAR-5
[14] = system: PC-3
[15] = system: RPMI-8226
[16] = system: SF-268
[17] = system: SNB-19
[18] = system: TK-10

Measured: GI50

O=c1[nH]c2ccsc2c(=O)n1COCc1ccccc1
inactive: [1] > 100 µM | [2] > 100 µM | [3] > 100 µM | [4] > 100 µM | [5] > 100 µM | [6] > 100 µM | [7] > 100 µM | [8] > 100 µM | [9] > 100 µM | [10] > 100 µM | [11] > 100 µM | [12] > 100 µM | [13] > 100 µM | [14] > 100 µM | [15] > 100 µM | [16] > 100 µM | [17] > 100 µM | [18] > 100 µM

CCC1(C(=O)OC(C)(C)C)OC12C(C)CCCC2C (centres undefined)
inactive: [1] 40.6 µM | [2] 33.7 µM | [3] > 100 µM | [4] > 100 µM | [5] 21.8 µM | [6] 37.3 µM | [7] > 100 µM | [8] 41.2 µM | [9] 45 µM | [10] 31.9 µM | [11] 24.5 µM | [12] 34.3 µM | [13] > 100 µM | [14] 57.9 µM | [15] 21.5 µM | [16] 43.1 µM | [17] 48.9 µM | [18] 41.3 µM

O=C1CCSSCCC(=O)NCCN1
inactive: [1] > 100 µM | [2] > 100 µM | [3] > 100 µM | [4] > 100 µM | [5] > 100 µM | [6] > 100 µM | [7] > 100 µM | [8] > 100 µM | [9] > 100 µM | [10] > 100 µM | [11] > 100 µM | [12] > 100 µM | [13] > 100 µM | [14] > 100 µM | [15] > 100 µM | [16] > 100 µM | [17] > 100 µM | [18] > 100 µM

CSC(=S)OC1CC(n2cnc3c(NC(=O)c4ccccc4)ncnc32)OC1CO[Si](C)(C)C(C)(C)C (centres undefined)
inactive: [1] 13.6 µM | [2] > 46.5 µM | [3] 26.9 µM | [4] 27.2 µM | [5] 3.78 µM | [6] 5.6 µM | [7] 41.1 µM | [8] 6.12 µM | [9] 14.2 µM | [10] 11.1 µM | [11] 7.18 µM | [12] 11 µM | [13] 49.4 µM | [14] 5.64 µM | [15] 16.3 µM | [16] 30.7 µM | [17] 36.7 µM | [18] 35.6 µM

C/C(=C\COc1ccc2ccc(=O)oc2c1)CCC(=O)C(C)(C)O
inactive: [1] 18.3 µM | [2] 29.2 µM | [3] 32.1 µM | [4] 35.1 µM | [5] 16.2 µM | [6] 18.5 µM | [7] 44 µM | [8] 21.4 µM | [9] 26.5 µM | [10] 31.8 µM | [11] 19.4 µM | [12] 17.9 µM | [13] 40.8 µM | [14] 53.5 µM | [15] 17 µM | [16] 41.8 µM | [17] 32.7 µM | [18] 39.3 µM

COC(=O)C1Cc2c(OC)ccc(OC)c2C(O)C1C(=O)OC (centres undefined)
inactive: [1] > 100 µM | [2] > 100 µM | [3] > 100 µM | [4] > 100 µM | [5] > 100 µM | [6] > 100 µM | [7] > 100 µM | [8] > 100 µM | [9] > 100 µM | [10] > 100 µM | [11] > 100 µM | [12] > 100 µM | [13] > 100 µM | [14] > 100 µM | [15] > 100 µM | [16] > 100 µM | [17] > 100 µM | [18] > 100 µM

CN(/N=C/c1ccc(OCc2cccc(COc3ccc(C=O)cc3)n2)cc1)c1cnn(-c2ccc(Cl)cc2Cl)c(=O)c1Cl
inactive: [1] 81.8 µM | [2] > 100 µM | [3] > 100 µM | [4] 62.5 µM | [5] > 100 µM | [6] > 100 µM | [7] 20.7 µM | [8] > 100 µM | [9] > 100 µM | [10] > 100 µM | [11] > 100 µM | [12] > 100 µM | [13] > 100 µM | [14] > 100 µM | [15] 53.1 µM | [16] 56 µM | [17] 50.7 µM | [18] 64.9 µM

Cc1ccc2c(c1)[n+]([O-])c(N)n[n+]2[O-]
inactive: [1] > 100 µM | [2] > 100 µM | [3] > 100 µM | [4] 51.5 µM | [5] > 100 µM | [6] > 100 µM | [7] > 100 µM | [8] > 100 µM | [9] > 100 µM | [10] 47.8 µM | [11] 39.6 µM | [12] > 100 µM | [13] > 100 µM | [14] > 100 µM | [15] > 100 µM | [16] > 100 µM | [17] > 100 µM | [18] > 100 µM

— ChEMBL document CHEMBL1201862, “PubChem BioAssay data set” (2004)
